Reference: US10780069B2, “Use of GC-1 in transplant related population” (University of Pittsburgh—Of the Commonwealth System of …, priority 2017, dated 2020)

Experiments:
[1] = Serum ALT/bilirubin and hepatic histology after GC-1 or T3; type: in vivo, mice; conditions: T3 (4 mg/Kg of diet) or GC-1 (5 mg/Kg of diet) chow 8 days, vs basal diet
Protocol: (§1) All studies on mice were performed in strict accordance with Guidelines. Eight-week old male C57BL/6 male mice (Jackson/Charles River) were maintained on a standard laboratory basal diet (Test Diet) (n=4), or fed a T3-supplemented diet (4 mg/Kg of diet, Sigma Chemicals, St. Louis Mo.) (n=4). GC-1 was administered to the eight week-old male C57BL/6 male mice either via GC-1-supplemented diet (5 mg/Kg of diet, Medchem Express) for 8 days (n=4) or via daily intraperitoneal injections (IP) of GC-1 dissolved in DMSO (0.3 mg/kg/dose) for 8 days (n=7). As a control group for injections, DMSO alone was injected daily intraperitoneal (IP) for 8 days (n=5). Mice were sacrificed 24 hours after the last injection.

hepatocytes [2] = assay: T3- or GC-1-supplemented diet in wild type mice: hepatocyte proliferation; type: in vivo
Protocol: as §1
(§2) To label dividing hepatocytes, BrdU (5-bromodeoxyuridine) dissolved in drinking water (1 mg/ml) was given to all animals throughout the experiment period. The animals were given food and water ad libitum with a 12-hour light/dark daily cycle.
(§3) Four micron liver sections were analyzed by immunohistochemistry for β-Catenin (BD Biosciences, San Jose, Calif.), Cyclin-D1 (Thermo-Scientific, Fremont, Calif.) and PCNA (Santa Cruz Biotechnology, Dallas, Tex.). Briefly, formalin-fixed sections were deparaffinized in graded xylene and alcohol. Endogenous peroxidase was inactivated using 3% hydrogen peroxide (Sigma). For β-Catenin, Cyclin-D1 staining, slides were microwaved in Citrate buffer followed by blocking with Superblock for 10 minutes. Sections were then incubated with secondary anti-mouse (for β-catenin) or anti-rabbit (for Cyclin-D1) horseradish peroxidase-conjugated antibody for 30 minutes.
(§4) Bromodeoxyuridine (BrdU) was stained with mouse antibody (Becton Dickinson) as previously described (Fanti et al. (2014) Hepatology 59, 2309-2320). Briefly, tissue sections were deparaffinized, exposed to 0.3% hydrogen peroxide in deionized water for 10 minutes to block endogenous peroxidase, treated with 2N HCl, incubated with trypsin 0.1% for 20 minutes and then with normal goat serum for 20 minutes at room temperature. Sections were then incubated overnight in cold room with anti-BrdU monoclonal antibody, followed by biotinylated goat anti-mouse IgG. DAB kit was then applied, and sections were counterstained with hematoxylin. A small segment of intestine was included from each mouse as a positive control for the staining. For quantification of BrdU staining, at least 10 high power fields (400× or 600×) fields each from at least three biological replicates were counted as indicated in the figures. Statistical analysis was performed as described below.

hepatocytes [3] = assay: GC-1 or T3 in hepatocyte specific β-catenin knockout mice (β-Cat LKO) and littermate controls; type: in vivo
Protocol: Eight to 10 week old male hepatocyte specific β-catenin knockout mice (β-cat-LKO) or sex-matched littermate controls obtained from breeding homozygous floxed β-catenin mice and albumin-cre transgenic mice (as described elsewhere (Tan et al., (2006) Gastroenterology 131, 1561-1572)) were given 8 daily IP injections of GC-1 (n=4) or DMSO (n=4) and harvested around 24 hours after the last injection.
as §2, §3, §4
(§5) Protein extraction from frozen liver tissue and western blot analysis were performed as previously described (Fanti et al., (2014) Hepatology 59, 2309-2320). For protein extraction, a small amount of frozen liver tissue was obtained (over dry ice) and was homogenized using RIPA buffer with protease and phosphatase inhibitor cocktail (Sigma, St. Louis, Mo.). Samples were transferred to a 1.5 ml tube on ice, and spun in cold room centrifuge at 14,000 RPM for 5 minutes. Pellet was then discarded and sample was aliquoted and stored at −80 C for use. Fifty micrograms of the proteins were resolved by sodium dodecyl sulfate-polyacrylamide gel electrophoresis analysis, and transferred to immobilon-polyvinylidene difluoride membranes.
(§6) The primary antibodies used were against β-catenin (BD Biosciences); pSer675-β-catenin, pSer552-β-catenin, Active-β-catenin (Cell-Signaling), Cyclin-D1 (Thermo-Scientific), and β-Actin (Sigma). Dilutions of primary antibody were done according to manufacturer recommendations (1:1000 for all except Cyclin-D1 which was 1:200). Horseradish peroxidase-conjugated secondary antibodies used were goat anti-mouse (1:20,000) and goat anti-rabbit (1:10,000) (Millipore). The proteins were detected by Super-Signal West Pico Chemiluminescense Substrate (Thermo Scientific, Rockford Ill.) and visualized by autoradiography.
Total RNA was extracted by homogenizing frozen liver tissues in Trizol reagent (Invitrogen, Carlsbad, Calif.) from GC-1-injected β-Cat LKO (n=4) and littermate control mice (n=4); and GC-1-injected LRP5-6 LKO (n=3) and littermate control mice (n=3). […]

hepatocytes [4] = assay: T3 or GC-1 in LRP5-6 LKO mice and littermate controls; type: in vivo
Protocol: Eight to 10 week-old LRP5-6-LKO were obtained from breeding homozygous LRP5-6 double floxed mice with albumin-cre transgenic mice as described previously (Yang et al. (2014) Hepatology 60, 964-976). LRP5-6-LKO or sex matched littermate controls were given either T3-supplemented diet (n=4), basal diet (n=3), IP GC-1 (n=3) or IP DMSO (n=3). Mice were sacrificed at 24 hours after the last IP injection.
To label dividing hepatocytes, BrdU (5-bromodeoxyuridine) dissolved in drinking water (1 mg/ml) was given to all animals throughout the experiment period. The animals were given food and water ad libitum with a 12-hour light/dark daily cycle. […]
as §5
as §6, with “autoradiography. […]” for “autoradiography.”

hepatocytes [5] = assay: Partial hepatectomy after pretreatment with T3 or GC-1 supplemented diet; type: in vivo, mice
Protocol: as §2
After 7 days of receiving T3 supplemented diet (n=3) or GC-1 diet (n=3) or standard basal mouse chow (n=3), C57BL/6 male mice underwent partial hepatectomy as described previously (Tan et al. (2006) Gastroenterology 131, 1561-1572). Anesthesia was provided with inhaled Isoflurane. The animals were sacrificed 24 hours post hepatectomy, after Isoflurane anesthesia and cervical dislocation. Serum and liver tissue were harvested for further processing.
as §3, §4

liver regeneration = conditions: rats; Columbano et al. (2008); cited from earlier work
[6] = system: preneoplastic hepatocytes; conditions: resistant-hepatocyte model of hepatocarcinogenesis (T3, rats); Ledda-Columbano 2000, Perra 2009; cited from earlier work

## N[C@@H](Cc1cc(I)c(Oc2ccc(O)c(I)c2)c(I)c1)C(=O)O [T3, Triiodothyronine]
[1]
  histological changes in the livers: no histological changes
Hepatocytes [2]; T3 (4 mg/Kg of diet) or GC-1 (5 mg/Kg of diet) chow 8 days, vs basal diet
  BrdU incorporation: increased BrdU incorporation
Hepatocytes [2]; T3 diet or IP GC-1, 8 days, vs respective controls
  cyclin-D1 staining in hepatocytes: notably increased cyclin-D1 staining
Hepatocytes [2]; T3 or GC-1 supplemented diet 8 days, vs basal diet
  cyclin-D1 staining in hepatocytes: increased in both groups
Hepatocytes [2]; T3 supplemented diet versus IP GC-1, 8 days, p<0.001 between groups
  BrdU-positive hepatocytes, T3 diet versus IP GC-1: highest proliferation
Hepatocytes [3]; β-Cat LKO after T3 or GC-1 treatment
  active β-catenin, Western blot: very faint signal
Hepatocytes [3]; β-Cat LKO vs controls treated with GC-1 or T3
  P-Ser675-β-catenin, Western blot: absent
Hepatocytes [4]; LRP5-6-LKO and littermate controls
  pSer675-β-catenin levels, Western blot: comparable or even greater levels
Hepatocytes [4]; LRP5-6 LKO
  pSer552-β-catenin levels, Western blot: modest increase
Hepatocytes [4]; LRP5-6 LKO after T3 or GC-1 feeding vs basal diet
  active β-catenin levels: no notable differences
Hepatocytes [4]; LRP5-6 LKO vs controls
  cyclin-D1 protein and mRNA expression: decreased
  numbers of cyclin-D1-positive hepatocytes (immunohistochemistry): notably decreased
  total β-catenin levels: comparable levels
Hepatocytes [4]; LRP5-6 LKO vs controls, T3 diet 4 mg/Kg of diet or GC-1 0.3 mg/Kg/dose IP 8 days
  number of BrdU-labeled hepatocyte nuclei: notable decrease
Hepatocytes [4]; control mice fed T3 or GC-1 diet for 8 days vs basal diet
  active β-catenin levels in liver lysates: dramatic increase
Hepatocytes [5]; 24 hours after hepatectomy
  nuclear cyclin-D1 immunohistochemistry at 24 hours after hepatectomy: panlobular distribution
Hepatocytes [5]; 24 hours post hepatectomy
  hepatocyte proliferative response post hepatectomy, T3 versus GC-1: significantly greater hepatocyte proliferative response than GC-1
Hepatocytes [5]; diet pretreatment, vs basal diet
  BrdU positive hepatocyte nuclei at 24 hours after hepatectomy: pronounced increase
Hepatocytes [5]; pre-hepatectomy vs 24 hour-post hepatectomy, same animals, all three mice
  increase in hepatocyte proliferation over the 24-hour liver regeneration period: around 2 fold
Hepatocytes [5]; pretreatment livers
  cyclin-D1 immunohistochemistry in resected lobes at time of hepatectomy: expansion of cyclin-D1 positive hepatocytes in the midzonal area
Hepatocytes [5]; seven-day pretreatment, vs basal diet
  BrdU-positive hepatocytes in resected lobes at time of hepatectomy: increased BrdU-positive hepatocytes
Liver regeneration
  liver regeneration after partial hepatectomy: regenerative advantage
  survival in a 90% hepatectomy model: survival advantage
[6]
  effect on preneoplastic lesions / carcinogenic process: accelerate remodeling of chemically-induced preneoplastic lesions
